From patent US20090258824A1, “Amyloid beta receptor and uses thereof” (priority 2005, published 2009)

Tested on: cultured cortical neurons
Test: Calcium imaging (Fluo-4) in cultured cortical neurons
Type: cell-based, rat (Sprague Dawley)
Conditions: antagonist co-applied with Aβ*56
Procedure: Cultured neurons. Cultures of cortical neurons from P1 Sprague Dawley rat pups were prepared according to previously published protocols (Dubinsky, J Neurosci 13, 623-631 (1993)). Dissections of cortical mantels excluded meninges, hippocampus, septal regions, and basal ganglia. […]
Size-exclusion chromatography (SEC). […] Fractions of 500 μl of eluate in 50 mM Ammonium Acetate, pH 8.5, were diluted 1:100 or 1:750 in neurophysiology experiments, or were concentrated using a vacuum system (VacuFuge™, Brinkmann-Eppendorf) and analyzed by silver staining.
Calcium imaging. […] Calcium indicator dye fluorescence was monitored with 488 nanometer (nm) excitation, a 500 nm long-pass barrier filter and confocal microscopy (Odyssey scanner, Noran, Middleton, Wis.). […] To quantify neuronal Ca^2+ responses, Ca^2+ fluorescence was measured from single neurons or clusters of neurons. Baseline fluorescence was normalized to one and the area between the curve and the baseline calculated using Origin software analysis routines (OriginLab Corporation, Northampton, Mass.).

SMILES | effect on the Aβ*56-induced increase in Ca2+ signal
O=C(O)C1CN(CCCP(=O)(O)O)CCN1 (racemic) [CPP, (+/−)-3-(2-carboxypiperazin-4-yl)-propyl-1-phosphonic acid] | completely abolished
CCC(N)(C(=O)O)c1ccc(C(=O)O)cc1 (racemic) [E4CPG, (RS)-α-Ethyl-4-carboxyphenylglycine] | failed to block
